Source: US9861102B2, “Methods for disinfection” (Markesbery Blue Pearl LLC, priority 2016, dated 2018)

Tested on: Bacillus subtilis bacteria
Assay: Closed-system control experiments of peracid reactant compounds, percent kill
Type: cell-based
Conditions: for Percent Kill: B. subtilis agar plates, electrostatic spray, 2-micron thickness, concentrations as in Example 2, charge as indicated
Text: The electrostatic spray device used was a Hurricane ES™ Portable Electrostatic Aerosol Applicator, modified to selectively impart either a positive, negative, or neutral charge when dispersing an aqueous composition containing a peracid reactant compound. In experiments where multiple aqueous compositions containing peracid reactant compounds were dispersed, the compositions were dispersed sequentially, and all aqueous compositions were dispersed with either a positive, negative, or neutral charge, as indicated below in Table 5. […] In all experiments, the percent by weight of distilled water was adjusted appropriately in response to the addition or deletion of a peracid reactant compound. […] Processing and handling of the agar plates containing the B. subtilis bacteria was conducted according to the procedure used in Example 3.

With `CC(=O)O` [Exp 8, Acetic Acid] the “Percent Kill” value was 6%.
In the case of `CCO` [Exp 9, Ethanol], the “Percent Kill” value is reported as 0% and the “effect on bacterial growth” value (ethanol on its own) is reported as “no effect”.
With `OO` [Exp 7, Hydrogen Peroxide] the “Percent Kill” value was 72%.
